Source: patent publication US6737383B1, “Herbicidal oxadiazolidines” (priority 1999, dated 2004)

Columns and labels:
bamyardgrass = assay: Test B flood test barnyardgrass; assay type: in vivo, Echinochloa crus-galli
Summary of the method: (§1)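 Flood test on plants grown to the 2-leaf stage; treated plants kept in greenhouse twelve to sixteen days, then visually rated against controls on a 0 (no effect) to 10 (complete control) scale.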

surinam grass = assay: Test B pre/postemergence surinam grass; assay type: in vivo, Brachiaria decumbens
Summary of the method: (§2)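 Test chemicals in a non-phytotoxic solvent mixture with surfactant were sprayed preemergence onto planted seeds and postemergence onto plants 2 to 18 cm tall (1- to 4-leaf stage). After twelve to sixteen days in a greenhouse, injury was visually rated against untreated controls from 0 (no effect) to 10 (complete control).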

wheat = assay: Test B pre/postemergence wheat; assay type: in vivo, Triticum aestivum
Summary of the method: as §2

crabgrass = assay: Test B pre/postemergence crabgrass; assay type: in vivo, Digitaria sanguinalis
Summary of the method: as §2

bedstraw = assay: Test B pre/postemergence bedstraw; assay type: in vivo, Galium aparine
Summary of the method: as §2

smallflower flatsedge = assay: Test B flood test smallflower flatsedge; assay type: in vivo, Cyperus difformis
Summary of the method: as §1

velvetleaf = assay: Test B pre/postemergence velvetleaf; assay type: in vivo, Abutilon theophrasti
Summary of the method: as §2

rape = assay: Test B pre/postemergence rape; assay type: in vivo, Brassica napus
Summary of the method: as §2

cocklebur = assay: Test B pre/postemergence cocklebur; assay type: in vivo, Xanthium strumarium
Summary of the method: as §2

purple nutsedge = assay: Test B pre/postemergence purple nutsedge; assay type: in vivo, Cyperus rotundus
Summary of the method: as §2

blackgrass = assay: Test B pre/postemergence blackgrass; assay type: in vivo, Alopecurus myosuroides
Summary of the method: as §2

corn = assay: Test B pre/postemergence corn; assay type: in vivo, Zea mays
Summary of the method: as §2

sugar beet = assay: Test B pre/postemergence sugar beet; assay type: in vivo, Beta vulgaris
Summary of the method: as §2

rice = assay: Test B flood test rice; assay type: in vivo, Oryza sativa
Summary of the method: as §1

soybean = assay: Test B pre/postemergence soybean; assay type: in vivo, Glycine max
Summary of the method: as §2

duck salad = assay: Test B flood test duck salad; assay type: in vivo, Heteranthera limosa
Summary of the method: as §1

wild oat = assay: Test B pre/postemergence wild oat; assay type: in vivo, Avena fatua
Summary of the method: as §2

[1] = Rate 62 g/ha, headed Pre-emergence (flood test species), scale 0 to 10 (0 no effect, 10 complete control)
[2] = Rate 125 g/ha, Pre-emergence, flood test species, scale 0 to 10 where 0 is no effect and 10 is complete control
[3] = Rate 250 g/ha, Pre-emergence, flood-test species, scale 0 to 10, 0 is no effect, 10 is complete control
[4] = Rate 500 g/ha, headed Pre-emergence (flood test species), scale 0 to 10 (0 no effect, 10 complete control)
[5] = Preemergence, Rate 62 g/ha, scale of 0 to 10 where 0 is no effect and 10 is complete control
[6] = Preemergence, Rate 125 g/ha, 0 is no effect, 10 is complete control
[7] = Preemergence, Rate 250 g/ha, scale 0 to 10, 0 is no effect, 10 is complete control
[8] = Preemergence, Rate 500 g/ha, scale 0 to 10 (0 no effect, 10 complete control)
[9] = Rate 62 g/ha, Postemergence, scale of 0 to 10 where 0 is no effect and 10 is complete control
[10] = Rate 125 g/ha, Postemergence, scale 0 to 10
[11] = Rate 500 g/ha, Postemergence, scale 0 to 10

COc1nc(OC)nc(N(C(=O)n2oc(=O)n(C(C)C)c2=O)C(C)C)n1 [Compound 182]
0: Barnyardgrass plant response rating (bamyardgrass; [1]) | Barnyardgrass plant response rating (bamyardgrass; [2]) | Barnyardgrass plant response rating (bamyardgrass; [3]) | Plant response rating, Barnyardgrass (bamyardgrass; [4]) | B. signalgrass plant response rating (surinam grass; [5]) | B. signalgrass plant response rating (0 to 10 scale) (surinam grass; [6]) | B. signalgrass plant response rating (surinam grass; [7]) | B. signalgrass plant response rating (surinam grass; [8]) | B. signalgrass plant response rating (surinam grass; [9]) | B. signalgrass plant response rating (surinam grass; Rate 125 g/ha, Postemergence, scale 0 (no effect) to 10 (complete control)) | Plant response rating, B. signalgrass (surinam grass; Rate 250 g/ha, Postemergence, scale 0 to 10, 0 is no effect, 10 is complete control) | B. signalgrass plant response rating (surinam grass; Rate 500 g/ha, Postemergence, scale 0 to 10, 0 no effect, 10 complete control) | Wheat plant response rating (wheat; [5]) | Wheat plant response rating (wheat; [7]) | Wheat plant response rating (wheat; [8]) | Wheat plant response rating (wheat; [10]) | Plant response rating (0 to 10; 0 is no effect, 10 is complete control), Wheat (wheat; Rate 250 g/ha, Postemergence) | Wheat plant response rating (wheat; [11]) | Crabgrass plant response rating (crabgrass; [5]) | Crabgrass plant response rating (0 to 10 scale) (crabgrass; [6]) | Crabgrass plant response rating (crabgrass; [7]) | Crabgrass plant response rating (crabgrass; [8]) | Crabgrass plant response rating (crabgrass; [9]) | Crabgrass plant response rating (crabgrass; [10]) | Plant response rating (0 to 10; 0 is no effect, 10 is complete control), Crabgrass (crabgrass; Rate 250 g/ha, Postemergence) | Crabgrass plant response rating (crabgrass; [11]) | Bedstraw plant response rating (bedstraw; [5]) | Bedstraw plant response rating (0 to 10 scale) (bedstraw; [6]) | Bedstraw plant response rating (bedstraw; [7]) | Bedstraw plant response rating (bedstraw; [8]) | Bedstraw plant response rating (bedstraw; [9]) | Bedstraw plant response rating (bedstraw; [10]) | Plant response rating (0 to 10; 0 is no effect, 10 is complete control), Bedstraw (bedstraw; Rate 250 g/ha, Postemergence) | Bedstraw plant response rating (bedstraw; [11]) | S. Flatsedge plant response rating (smallflower flatsedge; [1]) | S. Flatsedge plant response rating (smallflower flatsedge; [2]) | S. Flatsedge plant response rating (smallflower flatsedge; [3]) | S. Flatsedge plant response rating (smallflower flatsedge; Rate 500 g/ha, Pre-emergence, flood test species, scale 0 to 10 (0 no effect, 10 complete control)) | Velvetleaf plant response rating (velvetleaf; [5]) | Velvetleaf plant response rating (velvetleaf; [7]) | Velvetleaf plant response rating (velvetleaf; [8]) | Velvetleaf plant response rating (velvetleaf; [10]) | Plant response rating (0 to 10; 0 is no effect, 10 is complete control), Velvetleaf (velvetleaf; Rate 250 g/ha, Postemergence) | Velvetleaf plant response rating (velvetleaf; [11]) | Rape plant response rating (rape; [5]) | Rape plant response rating (0 to 10 scale) (rape; [6]) | Rape plant response rating (rape; [7]) | Rape plant response rating (rape; [8]) | Rape plant response rating (rape; [9]) | Rape plant response rating (rape; [10]) | Plant response rating (0 to 10; 0 is no effect, 10 is complete control), Rape (rape; Rate 250 g/ha, Postemergence) | Rape plant response rating (rape; [11]) | Cocklebur plant response rating (cocklebur; [5]) | Cocklebur plant response rating (0 to 10 scale) (cocklebur; [6]) | Cocklebur plant response rating (cocklebur; [7]) | Cocklebur plant response rating (cocklebur; [8]) | Cocklebur plant response rating (cocklebur; [9]) | Cocklebur plant response rating (cocklebur; [10]) | Plant response rating (0 to 10; 0 is no effect, 10 is complete control), Cocklebur (cocklebur; Rate 250 g/ha, Postemergence) | Cocklebur plant response rating (cocklebur; [11]) | Nutsedge plant response rating (purple nutsedge; [5]) | Nutsedge plant response rating (0 to 10 scale) (purple nutsedge; [6]) | Nutsedge plant response rating (purple nutsedge; [7]) | Nutsedge plant response rating (purple nutsedge; [8]) | Nutsedge plant response rating (purple nutsedge; [9]) | Nutsedge plant response rating (purple nutsedge; [10]) | Plant response rating (0 to 10; 0 is no effect, 10 is complete control), Nutsedge (purple nutsedge; Rate 250 g/ha, Postemergence) | Nutsedge plant response rating (purple nutsedge; [11]) | Blackgrass plant response rating (blackgrass; [5]) | Blackgrass plant response rating (0 to 10 scale) (blackgrass; [6]) | Blackgrass plant response rating (blackgrass; [7]) | Blackgrass plant response rating (blackgrass; [8]) | Blackgrass plant response rating (blackgrass; [9]) | Blackgrass plant response rating (blackgrass; [10]) | Plant response rating (0 to 10; 0 is no effect, 10 is complete control), Blackgrass (blackgrass; Rate 250 g/ha, Postemergence) | Blackgrass plant response rating (blackgrass; [11]) | Corn plant response rating (corn; [5]) | Corn plant response rating (0 to 10 scale) (corn; [6]) | Corn plant response rating (corn; [7]) | Corn plant response rating (corn; [8]) | Corn plant response rating (corn; [9]) | Corn plant response rating (corn; [10]) | Plant response rating (0 to 10; 0 is no effect, 10 is complete control), Corn (corn; Rate 250 g/ha, Postemergence) | Corn plant response rating (corn; [11]) | Sugarbeets plant response rating (sugar beet; [5]) | Sugarbeets plant response rating (0 to 10 scale) (sugar beet; [6]) | Sugarbeets plant response rating (sugar beet; [7]) | Sugarbeets plant response rating (sugar beet; [8]) | Sugarbeets plant response rating (sugar beet; [9]) | Sugarbeets plant response rating (sugar beet; [10]) | Plant response rating (0 to 10; 0 is no effect, 10 is complete control), Sugarbeets (sugar beet; Rate 250 g/ha, Postemergence) | Sugarbeets plant response rating (sugar beet; [11]) | Rice plant response rating (rice; [1]) | Rice plant response rating (rice; [2]) | Rice plant response rating (rice; [3]) | Plant response rating, Rice (rice; [4]) | Soybean plant response rating (soybean; [5]) | Soybean plant response rating (0 to 10 scale) (soybean; [6]) | Soybean plant response rating (soybean; [7]) | Soybean plant response rating (soybean; [8]) | Soybean plant response rating (soybean; [9]) | Soybean plant response rating (soybean; [10]) | Plant response rating (0 to 10; 0 is no effect, 10 is complete control), Soybean (soybean; Rate 250 g/ha, Postemergence) | Soybean plant response rating (soybean; [11]) | Ducksalad plant response rating (duck salad; [1]) | Ducksalad plant response rating (duck salad; [2]) | Ducksalad plant response rating (duck salad; [3]) | Plant response rating, Ducksalad (duck salad; [4]) | Wild oats plant response rating (wild oat; [5]) | Wild oats plant response rating (wild oat; [7]) | Wild oats plant response rating (wild oat; [8]) | Wild oats plant response rating (wild oat; [10]) | Plant response rating (0 to 10; 0 is no effect, 10 is complete control), Wild oats (wild oat; Rate 250 g/ha, Postemergence) | Wild oats plant response rating (wild oat; [11])
